In paper PMC6940354, “Comparative Assessment of the New PDE7 Inhibitor – GRMS-55 and Lisofylline in Animal Models of Immune-Related Disorders: A PK/PD Modeling Approach” (Pharmaceutical Research, 2020):
Values after ≈ are worked out from the molar mass of the structure shown. Where two headings read alike, the source gives them in different places.

Assays:
[1] = test system: ConA-induced hepatitis in BALB/c mice; test: ConA-induced hepatitis in mice; format: in vivo, mouse; conditions: IP 30 min before ConA 20 mg kg^−1 IV, 8 h after ConA, rolipram 10 mg kg^−1, GRMS-55 and (±)-LSF 50 mg kg^−1, vs control group
Experimental: ConA was dissolved in an appropriate volume of saline for injections to obtain a concentration of 2 mg mL^−1. Each of the investigated compounds was dissolved in a vehicle composed of DMSO and PEG 400 mixed at a ratio of 1:9 (v/v). Thirty minutes before ConA administration, mice were injected intraperitoneally (IP) with the investigated compounds dissolved in the vehicle at a dose of 50 mg kg^−1 or with the corresponding volume of vehicle alone in the case of control group. ConA was administered by IV route at a dose of 20 mg kg^−1 and 8 h later mice were sacrificed. Blood samples were harvested from each individual and allowed to clot for 30 min at room temperature. Subsequently, serum was separated by centrifugation (3000 x g, 10 min), collected, and stored at −80°C until analysis.
(§1) TNF-α levels in LPS-stimulated rat blood in vitro and in rat plasma samples from the in vivo studies were analyzed by the Rat TNF-α Quantikine ELISA Immunoassay Kit (R&D Systems, USA) according to the manufacturer’s instructions. The assay was linear at the range of 12.5–800 pg mL^−1. Levels of TNF-α in mice serum were measured by ELISA Kits for Tumor Necrosis Factor Alpha (Cloud-Clone Corp., USA). This assay was linear at the range of 15.6–1000 pg mL^−1. Absorbance was measured at 450 nm using a POLARstar Omega multi-mode microplate reader (BMG LABTECH, Germany).
Serum […] (AST) and alanine transaminase (ALT) activity was analyzed using the chemistry analyzer BS-800 (Shenzhen Mindray Bio-medical Electronics Co. ltd, China).

[2] = test system: TNF-α plasma levels in male Wistar rats with LPS-induced endotoxemia; test: LPS-induced endotoxemia in rats, PK/PD model of plasma TNF-α; format: in vivo, rat; conditions: for IC50: Rattus norvegicus, iv; for activity in inhibiting TNF-α release in vivo, times lower than that of rolipram: ratio of IC50 values to rolipram
Experimental: Male Wistar rats were implanted with catheters (SAI Infusion Technologies, USA) into the jugular vein and after a two-day recovery period they were administered with LPS dissolved in saline at a dose of 1 mg kg ^−1 into the tail vein simultaneously with one of the investigated compounds. […] The doses of the compounds were selected based on the literature data or results of our previous experiments. Each control group received LPS at the same IV dose and an appropriate volume of corresponding vehicle. […] The plasma samples were collected and stored at −80°C until analysis.
as §1
PK/PD and PK/PD/DIS progression models were developed considering the mechanism of action of the investigated compounds, the mechanisms of disease progression in the case of CIA, and the subsequent stages leading to TNF-α release in the case of LPS-induced endotoxemia. Various numbers of transit compartments were tested during development of the models, and the final models were chosen based on the goodness-of-fit criteria, such as AIC, SBC, a visual inspection of the fitting, and parameter precision. Estimated values of pharmacokinetic parameters were fixed during PK/PD and PK/PD/DIS progression model fitting procedures. […] PK/PD and PK/PD/DIS progression modeling were performed in ADAPT 5 software using the weighted least squares algorithm.
Therefore, as a result of PK/PD analysis, three sets of pharmacodynamic parameters were obtained based on the data from the three individual experiments.
The applied model is a modified indirect response model ([19]) with implemented transit compartments (T1-T4) that describe the delay of the observed pharmacodynamic response. In this scheme τ is the mean transit time, kin is the time limited (from 0 to tlag) zero-order rate constant of production of a TNF-α precursor (e.g., TNF-α mRNA). Different numbers of transit compartments were tested during the model development, but the best fit was observed using four transit compartments.
All Imax values were fixed to 1.

[3] = read-out: IC50, concentration of compound producing 50% of Imax (inhibition of TNF-α release in vivo), Final estimate (CV%), plasma concentration, PK/PD model, Imax fixed to 1, male Wistar rats, LPS 1 mg kg^−1 IV, IV GRMS-55 20, rolipram 5, (±)-LSF and PTX 40 and 80 mg kg^−1

Structure (SMILES)	TNF-α release in mice serum (result in words) [1]	activities of transaminases (ALT, AST) in mice sera (result in words) [1]	IC50 [2, 3]	potency in inhibiting TNF-α release in vivo, times stronger than PTX ([2]; ratio of IC50 values)	activity in inhibiting TNF-α release in vivo, times lower than that of rolipram [2]	IC50 ([2]; read-out: IC50, concentration of compound producing 50% of Imax (inhibition of TNF-α release in vivo), Final estimate (CV%))
CC(O)CCCCn1c(=O)c2c(ncn2C)n(C)c1=O (racemic) [(±)-LSF, lisofylline]	significantly reducing TNF-α levels	failed to decrease the activities of transaminases	5.8 µg/mL (≈ 20.7 µM)	~ 2.4 times	~ 16 times	
Cn1c(=O)c2c(nc(NCCc3ccccc3)n2CCCC(=O)NN=Cc2ccccc2O)n(C)c1=O [GRMS-55, 4-(1,3-Dimethyl-2,6-dioxo-8-(phenethylamino)-2,3,6,7-tetrahydro-1H-purin-7-yl)-N′-(2-hydroxybenzylidene)butanehydrazide]	most potently inhibited TNF-α release	significantly reduced	~1.1 µg/mL (≈ 2.18 µM)		~ 3 times	
COc1ccc(C2CNC(=O)C2)cc1OC1CCCC1 (stereo not drawn) [Rolipram, rolipram]	most potently inhibited TNF-α release	significantly reduced				0.36 µg/mL (≈ 1.31 µM)
